Data published in patent US20110257146A1, “Method of Treating Kcnq Related Disorders Using Organozinc Compounds” (The johns Hopkins University, priority 2006, published 2011).
Like-named read-outs stand apart in the source and are kept apart here.

Tests used:
[1] = target: T1, KCNQ2 (Rattus norvegicus, UniProt O88943); assay: Whole-cell voltage clamp of CHO cells expressing KCNQ2; assay type: cell-based; design: expressed in transfected cells; host or cells: CHO cells; conditions: for effect on KCNQ2 current amplitude of metal salt added to sodium pyrithione perfusion: metal salt (ZnSO4 10 μM) supplemented to 20 μM sodium pyrithione
Experimental: Cell culture and transient transfection—Chinese Hamster Ovary (CHO) cells were grown in 50/50 DMEM/F12 (Cellgro) with 10% FBS (Gibco), 100 U/ml penicillin (Cellgro), 100 μg/ml streptomycin (Cellgro) and 2 mM L-glutamine (Gibco). At 24 hours before transfection, cells were split and plated in 60 mm dishes and were transfected with Lipofectamine2000™ reagent (Invitrogen) according to the manufacturer's instruction. At 24 hours after transfection, cells were split and re-plated onto coverslips coated with poly-L-lysine (Sigma). Plasmid expressing CD4 cDNA as a marker was cotransfected with the channel cDNAs of hKCNQ1 (from Dr. Michael Sanguinetti), hKCNQ4 (from Dr. Vitya Vardanyan), rKCNQ2, rKCNQ3, and hKCNQ5 (from Drs. David McKinnon, Mark Shapiro, and Thomas Jentsch). Prior to recording, anti-CD4 Dynabeads (Dynal. Biotech. Inc.) were added into the medium to allow for identification of the transfected cells. Stable lines expressing Kv2.1, hERG, and Kv4.2 were generated by standard protocols using pcDNA3.1 and maintained at complete medium supplemented with 500 μg/ml G418. The N-type calcium channel stable line was a kind gift from Drs. Diane Lipscombe and David Yue.
(§1) Electrophysiological Recording—Standard whole-cell recording was used. Pipettes were pulled from borosilicate glass capillaries (TW150-4, World Precision Instruments, Sarasota, Fla.). When filled with the intracellular solution, the pipettes have resistances of […]. During the recording, constant perfusion of extracellular solution was maintained using a BPS perfusion system (ALA, Westbury, N.Y.). Pipette solution contained (mM): KCl 145, MgCl2 1, EGTA 5, HEPES 10, MgATP 5 (pH 7.3); extracellular solution contained (mM): NaCl 140, KCl 3, CaCl2 2, MgCl2 1.5, HEPES 10, glucose 10 (pH 7.4). Current and voltage were recorded using an Axopatch-200A amplifier, filtered at 1 kHz and digitized using a DigiData 1322A with pClamp 9.2 software (Axon Instruments, Foster City, Calif.). Series resistance compensation was also used and set to 60-80%.
Data and Statistical Analysis—Patch-clamp data were preprocessed using Clampfit 9.2 (Axon Instruments, Foster City, Calif.) and then analyzed in Origin 7 (OriginLab, Northampton, Mass.). The activation curve was fitted by the Boltzmann equation: G=(Gmax−Gmin)/[1+exp[(V−V1/2)/S]]+Gmin, where Gmax is the maximum conductance, Gmin is the minimum conductance, V1/2 is the voltage for half of the total numbers of channels to open, and S is the slope factor. The dose response curve was fitted by the Hill equation: E=Emax/(1+(EC50/C)^P), where Emax is the maximum response, C is the drug concentration, EC50 is the drug concentration producing half of the maximum response, and P is the Hill coefficient. The deactivation trace was fitted by the standard exponential equation: I(t)=ΣIi*exp(−t/τi), where I is the current, t is the time and τ is the time constant. Data are presented as means±SE. Significance was estimated using paired two-tailed Student's t-test.

[2] = In vivo Geller conflict test for anxiolytics; design: species or system rats; conditions: positive control
Experimental: In the Geller conflict test (see, e.g., Geller & Seifter, Psychophamracologia 1:482-492 (1960: Pollard & Howard, Psychopharmacology 62:117-121 (1979)), rats are trained to press a lever to receive food pellets during daily 1 hour sessions. The sessions are divided into punished and unpunished phases. During the four, three-minute punished periods, a light signals that each lever press will produce both a pellet and a foot shock (punishment), which reduces lever pressing. The number of punished lever presses on test days (when test compound is administered) is compared to the mean on baseline days. The positive control, chlordiazepoxide, increases punished lever pressing by >50%. A compound that produces an increase of approximately 40% or greater is generally considered to be of interest as a rapid-onset anxiolytic.
A compound with selective KCNQ1 channel opening activity increases punished responding in a dose-dependent manner. The increase in punished responding is statistically significant (paired t-test p<0.05) at 10, 17, 30, and 56 mg/kg PO with increases of 40% or greater at 30 and 56 mg/kg.

[3] = test system: hippocampal neurons; assay: Membrane potential and elicited action potentials of isolated hippocampal neurons; assay type: cell-based, rat; conditions: 15 μM linopirdine added after 10 μM ZnPy
Experimental: FIG. 10. ZnPy potentiation of native M-current. A. M current recorded from an isolated rat dorsal root ganglion neuron, Vh was −60 mV, stepped to −20 mV, followed by a step to −50 mV, and stepped back to −20 mV. B. Histograms show M-current amplitudes in the presence and absence of 10 μM ZnPy (n=10, * p<0.001). M-current amplitudes were measured by fitting the IM relaxation with an exponential equation. The recording bath solution includes 1 μM TTX, 0.2 mM TEA, 1 mM 4-AP, 50 μM CNQX, and 10 μM bicuculline. C. Membrane potential of an isolated hippocampal neuron was monitored when 10 μM ZnPy was applied in bath solution followed by the addition of 15 μM linopirdine. D. Action potentials elicited by 200 pA current injection to a patched hippocampal neuron. The ZnPy treatments are as indicated.
Neuron Culture—Dorsal root ganglia (DRG) was collected from fourteen-day-old CD rat and incubated in collagenase (sigma, 500 U/ml, 15 min) and then trypsin (Sigma, 1 mg/ml, 30 min) at 37° C. Single DRG neurons were isolated by mechanical trituration with a fire-polished glass Pasteur pipette. Hippocampal tissue was dissected out from CD rat postnatal day 0. The tissue was digested with papain (Worthington Biochem, 20 U/ml, 30 min) and resuspended into single cells. The single-cell suspension was plated onto a monolayer of glial cells that were growing on coated cover slips. Cytosine-1-D-arabinofuranoside at 5 μM was added into the culture medium 24-48 hours later to arrest glial cell proliferation. The culture medium consisted of Neurobasal™ medium with B-27 supplement (Gibco), penicillin/streptomycin and 2 mM L-glutamine. All cells were maintained at 37° C. with 5% CO2 prior to recording.
Electrophysiological Recording—Standard whole-cell recording was used. Pipettes were pulled from borosilicate glass capillaries (TW150-4, World Precision Instruments, Sarasota, Fla.). […] Current and voltage were recorded using an Axopatch-200A amplifier, filtered at 1 kHz and digitized using a DigiData 1322A with pClamp 9.2 software (Axon Instruments, Foster City, Calif.). […]

[4] = target: T1, KCNQ2; assay: Single channel outside-out patch recording of KCNQ2; assay type: cell-based; design: expressed in transfected cells; host or cells: CHO cells; conditions: 50 μM linopirdine
Experimental: For single channel recording procedure, outside-out patch recording was used. The pipettes had resistances of 7-15 MΩ when filled with the intracellular solution of the following composition (mM): KCl 145, MgCl2 1, EGTA 5, HEPES 10, MgATP 5 (pH 7.3). Extracellular solution contained (mM): NaCl 150, KCl 5, CaCl2 2, MgCl2 1, HEPES 10, glucose 10 (pH 7.4). Current and voltage were recorded using an Axopatch-200B amplifier, sample at 4 kHz and filtered at 200 Hz, and digitized using a DigiData 1322A with pClamp 9.2 software (Axon Instruments, Foster City, Calif.).
The open probability (Po) and single channel current (i) were calculated by fitting all-point histograms with single- or multi-Gaussian curves. The ratio of the area under the fitted ‘open’ Gaussian to the total area under the entire Gaussian was taken as Po, and the difference between the fitted “closed” and “open” peaks was taken as i, single channel conductance (γ) was calculated by the equation: γ=i/(V−V5).

[5] = target: TRPM8 (Homo sapiens, UniProt Q7Z2W7); conditions: shift from 32 mV; cited from earlier work
Sequence of TRPM8 (Q7Z2W7 whole entry, species assumed): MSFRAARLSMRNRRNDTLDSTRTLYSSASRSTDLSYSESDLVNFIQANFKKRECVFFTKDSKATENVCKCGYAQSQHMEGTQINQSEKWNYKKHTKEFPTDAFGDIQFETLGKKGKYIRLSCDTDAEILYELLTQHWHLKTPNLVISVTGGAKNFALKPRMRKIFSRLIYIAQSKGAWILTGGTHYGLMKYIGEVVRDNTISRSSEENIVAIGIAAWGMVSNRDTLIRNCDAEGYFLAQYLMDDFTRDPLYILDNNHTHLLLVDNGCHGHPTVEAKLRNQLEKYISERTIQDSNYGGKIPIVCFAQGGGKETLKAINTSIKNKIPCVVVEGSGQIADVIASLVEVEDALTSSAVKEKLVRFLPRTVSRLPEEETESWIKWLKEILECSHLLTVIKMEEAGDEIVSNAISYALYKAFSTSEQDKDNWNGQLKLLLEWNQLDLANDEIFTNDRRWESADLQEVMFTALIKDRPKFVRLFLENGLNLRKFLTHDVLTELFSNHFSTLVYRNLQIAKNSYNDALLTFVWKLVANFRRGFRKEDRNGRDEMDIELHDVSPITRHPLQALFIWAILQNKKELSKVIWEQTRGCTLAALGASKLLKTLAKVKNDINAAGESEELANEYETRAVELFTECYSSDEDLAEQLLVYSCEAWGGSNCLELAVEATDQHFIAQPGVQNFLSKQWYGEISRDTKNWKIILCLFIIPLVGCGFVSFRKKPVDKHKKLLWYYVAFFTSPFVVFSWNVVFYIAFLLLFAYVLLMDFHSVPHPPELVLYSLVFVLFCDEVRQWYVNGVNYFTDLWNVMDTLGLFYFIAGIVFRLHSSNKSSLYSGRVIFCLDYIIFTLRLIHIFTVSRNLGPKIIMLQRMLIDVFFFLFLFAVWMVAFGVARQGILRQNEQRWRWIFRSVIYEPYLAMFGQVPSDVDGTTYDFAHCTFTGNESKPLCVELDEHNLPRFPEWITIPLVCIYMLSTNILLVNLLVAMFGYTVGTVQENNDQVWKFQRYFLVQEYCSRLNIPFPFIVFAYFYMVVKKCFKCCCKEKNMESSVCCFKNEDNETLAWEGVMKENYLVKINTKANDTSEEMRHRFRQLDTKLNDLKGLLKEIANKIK

[6] = target: T2, KCNQ2(A306T) (Rattus norvegicus, UniProt O88943, A306T); assay: Whole-cell recording of KCNQ2(A306T) mutant in CHO cells; assay type: cell-based; conditions: retigabine
T2 construct: expressed in transfected cells; host or cells: CHO cells
Experimental: FIG. 9. KCNQ2 point mutants selectively lose ZnPy sensitivity. […] Each mutation site was indicated based on the predicted transmembrane regions. Dashed line indicates the potentiation level of wt KCNQ2 channel in the absence of ZnPy. […] C. Modeling of the S5-pore-S6 region of KCNQ2.
(§2) FIG. 11. ZnPy effects on BFNC mutant channels expressed in CHO cells. A. whole-cell currents of KCNQ2(R207W), KCNQ2(Y284C), and KCNQ2(A306T) were recorded in the absence (left) and presence (right) of 10 μM ZnPy, Vh was −80 mV, in 10 mV voltage steps from −70 mV to +50 mV. B. a histogram plotting potentiation effects on KCNQ2 wild type (wt) and BFNC mutants (R207W, Y284C and […]) by ZnPy (filled box) and retigabine (open box) (n≧4, * p<0.001, ** p<0.05).
(§3) Mutagenesis—Starting from KCNQ cDNAs, the KCNQ2 point mutants were constructed by recombinant PCR and verified by sequencing.
as §1

[7] = target: T3, KCNQ2(R207W) (Rattus norvegicus, UniProt O88943, R207W); assay: Whole-cell recording of KCNQ2(R207W) BFNC mutant in CHO cells; assay type: cell-based; conditions: retigabine
T3 construct: expressed in transfected cells; host or cells: CHO cells, transient
Experimental: as §2, §3
as §1, with “Series resistance compensation was also used and set to 60-80%.” left out

[8] = target: T4, KCNQ2(Y284C) (Rattus norvegicus, UniProt O88943, Y284C); assay: Whole-cell recording of KCNQ2(Y284C) BFNC mutant in CHO cells; assay type: cell-based; conditions: retigabine
T4 construct: expressed in transfected cells; host or cells: CHO cells, transient
Experimental: as §2, §3
as §1, with “Series resistance compensation was also used and set to 60-80%.” left out

Q: Which “effect on KCNQ2 current amplitude” value [1] does the source give for `[Na+].[O-][n+]1ccccc1[S-]` [sodium pyrithione] here?
A: The value was “no change in current amplitude”.

Q: Which “effect on KCNQ2 current amplitude of metal salt added to sodium pyrithione perfusion” value (“effect … to sodium pyrithione perfusion” below) [1] does the source give for `[Cl][Cd][Cl]` [CdCl2] here?
A: The value was “did not induce any potentiation”.

Q: For `Oc1ccc(N=Nc2ccccn2)c(O)c1` [PAR, 4-(2)-(pyridylazo) resorcinol], which “effect on potentiation induced by sodium pyrithione plus ZnSO4” value ([1]; 100 μM PAR) is on record?
A: The value was “abolished”.

Q: What about the “effect on KCNQ2 channel activity, compound alone” value ([1]; PAR itself) of the same molecule?
A: The value was “had no effect on KCNQ2 channel activity”.

Q: For `CNC1=Nc2ccc(Cl)cc2C(c2ccccc2)=[N+]([O-])C1` [chlordiazepoxide], which “increase of punished lever pressing” value [2] is on record?
A: Its value is over 50%.

Q: For `Oc1c(I)cc(I)c2cccnc12` [5,7-diiodo-8-hydroxyquinoline], which “potentiation of KCNQ2 current amplitude by zinc ionophores” value ([1]; +50 mV) is on record?
A: Its value is “None displayed any potentiation effect on current amplitude”.

Q: What does the source list for `O=C1N(c2ccccc2)c2ccccc2C1(Cc1ccncc1)Cc1ccncc1` [linopirdine]?
A: effect on ZnPy-induced hyperpolarization [3]: completely abolished the hyperpolarization of membrane potential; effect on KCNQ2 current ([1]; 30 μM linopirdine, +50 mV): rapid inhibition; effect on single channel activity [4]: fully blocked

Q: For `CC1CCC(C(C)C)C(O)C1` (centres unmarked) [Menthol], which “V1/2 after menthol binding” value [5] is on record?
A: The value was −31 mV.

Q: What does the source list for `CCOC(=O)Nc1ccc(NCc2ccc(F)cc2)cc1N` [Retigabine, retigabine]?
A: current potentiation [6]: < 50%; current potentiation [7]: < 50%; current potentiation [8]: < 50%

Q: Which “effect … to sodium pyrithione perfusion” value [1] does the source give for `O=S(=O)([O-])[O-].[Zn+2]` [ZnSO4] here?
A: Its value is “marked increase in current amplitude”.

Q: For `[Zn+2]` [Zn^2+], which “effect on KCNQ2 channel, zinc ion alone” value [1] is on record?
A: The value was “cannot induce any detectable effect”.

Q: Which “effect … to sodium pyrithione perfusion” value [1] does the source give for `O=S(=O)([O-])[O-].[Cu+2]` [CuSO4] here?
A: The value was “did not induce any potentiation”.

Q: With `CC[N+](CC)(CC)CC` [TEA, tetraethylammonium] as the molecule, how does the “effect on KCNQ2 current” value [1] read?
A: Its value is “completely blocked”.
